{"source": "patent EP0419676B1", "about": "“THIONAPHTHALENE DERIVATIVES, METHOD OF PRODUCING THE SAME, AND ANTIALLERGIC AGENT CONTAINING THE SAME” (TEIJIN LIMITED, priority 1989, dated 1990)", "key": {"[1]": {"test_system": "peritoneal mast cells of rat", "assay": "Histamine release from peritoneal mast cells induced by Compound 48/80 (non-allergic release)", "format": "cell-based, Sprague-Dawley strain male rat", "details": "for inhibition at 10 µM: Rattus norvegicus, Mast cell, 10 min, read-out: Inhibitory ratio (%) histamine release", "protocol": "(§1) To a Sprague-Dawley strain male rat (10 weeks or older) was intraperitoneally administered, under ether anesthesia, a diluted rat anti-DNP-As IgE serum at 2 ml/kg. After 16 hours, cells were recovered by washing intraperitoneally with a Tyrode solution containing 0.5% heparin (Ca⁺⁺, Mg⁺⁺, free). Mast cells (5 x 10⁴) separated by overlying in the 30% Ficoll/Tyrode solution and centrifugation were reliberated into the Tyrode solution (Ca⁺⁺, Mg⁺⁺) and incubated with the addition of the drug solution shown in Table 3-1, for 10 minutes, and then DNP-As and phosphatidylserine were added to final concentrations of 20 µg/ml and 25 µg/ml, respectively, followed by incubation for 10 minutes. The reaction was stopped by ice-cooling, and the histamine release in the supernatant was determined by fluorophotometry. Regarding the non-allergy release, 5 x 10⁴ of mast cells were investigated by incubation with 0.5 µg/ml of Compound 48/80 for 10 minutes, after the addition of the drug solution shown in Table 3-2."}, "[2]": {"test_system": "anti-TNP IgE antibody production", "assay": "IgE antibody production suppressive effect: anti-TNP IgE production by cultured spleen cells of TNP-KLH-immunized mouse", "format": "cell-based, BALB/C mouse", "protocol": "An 8 weeks old BALB/C mouse (♀) was immunized by an intraperitoneal injection of 10 µg of TNP-KLH (trinitrophenyl-key hole limpet hemocyanine) and 2 mg of aluminum hydroxide gel, and after 3 weeks, 1 µg of TNP-KLH and 2 mg of aluminum hydroxide gel were boosted, and 4 weeks later, the spleen was enucleated.\nThe spleen cells (6 x 10⁶) were cultured together with 10 ng/ml of TNP-KLH, in the presence or non-presence of the compound of the present invention (10⁻⁵ to 10⁻⁷ M), in 1 ml of RPMI-1640 medium (containing 10% fetal bovine serum) for 2 days, followed by washing to remove the antigen and the drug, and the washed cells were resuspended in a fresh medium containing no antigen and further cultured for 5 days. All cultivations were performed under 5% CO₂ at 37°C. After completion of the culturing, the supernatant was recovered, and the concentration of anti-TNP IgE or anti-TNP IgG antibody was determined by an antigen and isotype specific immunoassay. […]\nThe values in the brackets ( ) indicate the values of the spontaneous IgE production amount observed when TNP-KLH was not added, and represent the IgE production dependency on the antigen.\nThe same experimental methods were used for the compounds shown below, and IgE antibody production suppressive effects were evaluated. […] (Exemplary compound VI - (1)): methyl (6,7-dimethoxy-2-naphthylthio)acetate (Exemplary compound V - (4)): N-(2-methoxycarbonylphenyl)-(6,7-dihydroxy-2-naphthylthio)acetamide (Exemplary compound V - (2)): N-tetrazolyl(6,7-dihydroxy-2-naphthylthio)acetamide Table 2"}, "[3]": {"test_system": "Rat homologous PCA reaction", "assay": "Rat homologous PCA reaction", "format": "in vivo, Sprague-Dawley strain male rat", "details": "p.o., 1 hour before antigen", "protocol": "The back of a Sprague-Dawley strain male rat (6 - 8 w) was depilated, and at one site on both sides thereof, 0.1 ml of a rat anti-ovalbumin IgE serum diluted with physiological saline was intradermally injected under ether anesthesia. After 48 hours, 25 mg/kg of ovalbumin, 25 mg/kg of Evans Blue were intravenously administered to induce the PCA reaction, and after 30 minutes, the skin was peeled off, dipped in a mixture of 0.3% Na₂SO₄·10H₂O/Acetate (3:7), and the dye amount infiltrated was quantitated by absorbance at 620 nm. The drug listed in Table 4 was suspended in 5% gum arabic solution and orally administered 1 hour before the antigen administration."}, "[4]": {"test_system": "peritoneal mast cells of rat", "assay": "Histamine release from IgE-sensitized peritoneal mast cells, DNP-As antigen (allergic release)", "format": "cell-based, Sprague-Dawley strain male rat", "protocol": "as §1, with “fluorophotometry.” for “fluorophotometry. Regarding the non-allergy release, 5 x 10⁴ of mast cells were investigated by incubation with 0.5 µg/ml of Compound 48/80 for 10 minutes, after the addition of the drug solution shown in Table 3-2.”"}, "Lipoxygenase": {"target": "T1, Lipoxygenase (Homo sapiens, UniProt P09917)", "T1 construct": "heparin-treated vein blood of a healthy person; from tissue; host or cells: human heparinised venous whole blood (leukocytes)", "T1 sequence (P09917 1-674)": "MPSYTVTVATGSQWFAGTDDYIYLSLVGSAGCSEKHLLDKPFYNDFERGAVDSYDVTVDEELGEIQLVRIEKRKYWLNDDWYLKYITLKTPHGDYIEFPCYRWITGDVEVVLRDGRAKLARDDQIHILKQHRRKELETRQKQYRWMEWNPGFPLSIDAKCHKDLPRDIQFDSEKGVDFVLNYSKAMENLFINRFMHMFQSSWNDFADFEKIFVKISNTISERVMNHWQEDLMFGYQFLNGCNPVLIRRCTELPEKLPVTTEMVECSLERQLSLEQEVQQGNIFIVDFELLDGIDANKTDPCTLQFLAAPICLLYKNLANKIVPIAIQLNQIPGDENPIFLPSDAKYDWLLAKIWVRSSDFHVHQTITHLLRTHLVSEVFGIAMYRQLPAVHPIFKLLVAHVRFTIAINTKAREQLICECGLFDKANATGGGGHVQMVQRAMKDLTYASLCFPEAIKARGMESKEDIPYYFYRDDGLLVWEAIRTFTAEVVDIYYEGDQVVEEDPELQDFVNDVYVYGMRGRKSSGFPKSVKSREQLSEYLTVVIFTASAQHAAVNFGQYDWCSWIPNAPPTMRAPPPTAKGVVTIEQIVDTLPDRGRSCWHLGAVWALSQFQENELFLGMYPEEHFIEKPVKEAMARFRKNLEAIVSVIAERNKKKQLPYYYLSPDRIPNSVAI", "assay": "Lipoxygenase inhibitory activity evaluation: LTB4 and 5-HETE production in A23187-stimulated whole blood", "format": "cell-based, healthy man", "details": "10⁻⁵ M, A23187 25 µM; for Amount of LTB₄ produced: no addition 125; for Amount of 5-HETE produced: no addition 130", "protocol": "To 1 ml of heparin-treated vein blood of a healthy person without an administration of drugs was added 1 µl of a DMSO solution of the drug test sample listed in Table 5 (final 10⁻⁵ M), and after treatment at 37°C for 5 minutes, 5 µl of a DMSO solution of A23187 was added (final 25 µM) and the treatment carried out at 37°C for 15 minutes, followed by ice-cooling. After the addition of 10 µl of a DMSO solution of 100 ng of 15-HETE as the internal standard substance for quantitation, 0.8 ml of acetonitrile was added, and the precipitates formed were removed by centrifugation. Then, LTB₄ and 5-HETE in the supernatant were subjected to HPLC separation and quantitation (ref. F.J. Sweeney, et al., Prostaglandins Leukotrienes & Med., 28, 73 (1987))."}, "[5]": {"details": "Experiment 2, 10⁻⁵ M, Compound 48/80 0.5 µg/ml"}, "[6]": {"details": "Experiment 1, 10⁻⁵ M, Compound 48/80 0.5 µg/ml"}}, "note": "Like-named read-outs stand apart in the source and are kept apart here.", "data": [{"smiles": "COC(=O)CSc1ccc2cc(OC(C)=O)c(OC(C)=O)cc2c1", "note": "[Exemplary compound VI-(2), Methyl (6,7-diacetoxy-2-naphthyithio)acetate]", "values": [{"measurement": "Inhibitory ratio (%) histamine release", "setting": "[1]; [5]", "result": 2.6, "unit": "%"}]}, {"smiles": "COC(=O)CSc1ccc2cc(OC(=O)OC(C)C)c(OC(=O)OC(C)C)cc2c1", "note": "[Exemplary compound VI-(4), Methyl (6,7-diisopropoxycarbonyloxy-2-naphthylthio)acetate]", "values": [{"measurement": "inhibition at 10 µM", "setting": "[1]; [5]", "result": 17.8, "unit": "%"}]}, {"smiles": "O=C(CSc1ccc2cc(O)c(O)cc2c1)Nc1nnn[nH]1", "note": "[Exemplary compound V-(2), N-5-tetrazolyl(6,7-dihydroxy-2-naphthylthio)-acetamide]", "values": [{"measurement": "inhibition at 10 µM", "setting": "[1]; [6]", "result": 2.2, "unit": "%"}, {"measurement": "Suppressive ratio (IgE antibody production)", "setting": "[2]; 10⁻⁷ M", "result": 11, "unit": "%"}, {"measurement": "Suppressive ratio (%) Experiment 1", "setting": "[3]; 25 mg/kg", "result": -0.3, "unit": "%"}]}, {"smiles": "COc1ccc(/C=C/C(=O)Nc2ccccc2C(=O)O)cc1OC", "note": "[Tranilast, reference compound]", "values": [{"measurement": "inhibition at 10 µM", "setting": "[1]; [6]", "result": 24.4, "unit": "%"}, {"measurement": "Suppressive ratio (%) Experiment 1", "setting": "[3]; 200 mg/kg", "result": 24.2, "unit": "%"}, {"measurement": "Suppressive ratio (%) Experiment 2", "setting": "[3]; 200 mg/kg", "result": 26.9, "unit": "%"}]}, {"smiles": "COC(=O)CSc1ccc2cc(OC(=O)OC)c(OC(=O)OC)cc2c1", "note": "[Exemplary compound VI-(3), Methyl (6,7-dimethoxycarbonyloxy-2-naphthylthio)acetate]", "values": [{"measurement": "inhibition at 10 µM", "setting": "[1]; [5]", "result": 7.5, "unit": "%"}]}, {"smiles": "O=C(O)CSc1ccc2cc(O)c(O)cc2c1", "note": "[Exemplary compound IV-(2), (6,7-Dihydroxy-2-naphthylthio)acetic acid]", "values": [{"measurement": "suppressive action against non-allergy histamine release (in words)", "setting": "[1]", "result": "weak suppressive actions"}, {"measurement": "suppressive action against allergy histamine release (in words)", "setting": "[4]", "result": "suppressive actions"}]}, {"smiles": "COC(=O)C(C)Sc1ccc2cc(O)c(O)cc2c1", "note": "(stereo not shown) [Exemplary compound VII-(1), Methyl 2-(6,7-dihydroxy-2-naphthylthio)-propionate]", "values": [{"measurement": "5-HETE (Inhibitory ratio %)", "setting": "Lipoxygenase", "result": 69, "unit": "%"}, {"measurement": "LTB₄ (Inhibitory ratio %)", "setting": "Lipoxygenase", "result": 72, "unit": "%"}, {"measurement": "Amount of LTB₄ produced", "setting": "Lipoxygenase", "result": 35, "unit": "ng/ml/plasma"}, {"measurement": "Amount of 5-HETE produced", "setting": "Lipoxygenase", "result": 40, "unit": "ng/ml/plasma"}]}, {"smiles": "COC(=O)CSc1ccc2cc(OC)c(OC)cc2c1", "note": "[Exemplary compound VI-(1), Methyl (6,7-dimethoxy-2-naphthylthio)acetate]", "values": [{"measurement": "inhibition at 10 µM", "setting": "[1]; [5]", "result": 3.7, "unit": "%"}, {"measurement": "Suppressive ratio (IgE antibody production)", "setting": "[2]; 10⁻⁶ M", "result": 69, "unit": "%"}]}, {"smiles": "O=C(CSc1ccc2cc(O)c(O)cc2c1)NCCCCN1CCN(C(c2ccc(F)cc2)c2ccc(F)cc2)CC1", "note": "[Exemplary compound V-(6), 1-[4-[(6,7-dihydroxy-2-naphthylthio)acetylamino]-butyl]-4-[bis(4-fluorophenyl)methyl]piperazine]", "values": [{"measurement": "inhibition at 10 µM", "setting": "[1]; [6]", "result": 5.9, "unit": "%"}, {"measurement": "Suppressive ratio (%) Experiment 2", "setting": "[3]; 25 mg/kg", "result": 15.9, "unit": "%"}]}, {"smiles": "O=C(CSc1ccc2cc(O)c(O)cc2c1)Nc1ccccc1C(=O)O", "note": "[Exemplary compound V-(3), N-(2-carboxyphenyl)(6,7-dihydroxy-2-naphthylthio)acetamide]", "values": [{"measurement": "inhibition at 10 µM", "setting": "[1]; [6]", "result": 1.3, "unit": "%"}, {"measurement": "Suppressive ratio (%) Experiment 1", "setting": "[3]; 25 mg/kg", "result": -18.0, "unit": "%"}]}, {"smiles": "COC(=O)c1ccccc1NC(=O)CSc1ccc2cc(O)c(O)cc2c1", "note": "[Exemplary compound V-(4), N-(2-methoxycarbonylphenyl)(6,7-dihydroxy-2-naphthylthio)acetamide]", "values": [{"measurement": "inhibition at 10 µM", "setting": "[1]; [6]", "result": -0.8, "unit": "%"}, {"measurement": "Suppressive ratio (IgE antibody production)", "setting": "[2]; 10⁻⁶ M", "result": 7, "unit": "%"}, {"measurement": "Suppressive ratio (IgE antibody production)", "setting": "[2]; 10⁻⁷ M", "result": 26, "unit": "%"}, {"measurement": "Suppressive ratio (%) Experiment 1", "setting": "[3]; 25 mg/kg", "result": 0, "unit": "%"}]}, {"smiles": "O=C(CSc1ccc2cc(O)c(O)cc2c1)Nc1ccccc1-c1nnn[nH]1", "note": "[Exemplary compound V-(5), N-[2-(5-tetrazolyl)phenyl](6,7-dihydroxy-2-naphthylthio)acetamide]", "values": [{"measurement": "inhibition at 10 µM", "setting": "[1]; [6]", "result": 28.1, "unit": "%"}, {"measurement": "Suppressive ratio (%) Experiment 2", "setting": "[3]; 25 mg/kg", "result": 16.5, "unit": "%"}]}, {"smiles": "Oc1cc2ccc(SCc3ccccc3)cc2cc1O", "note": "[II-(1)]", "values": [{"measurement": "5-HETE (Inhibitory ratio %)", "setting": "Lipoxygenase", "result": 66, "unit": "%"}, {"measurement": "LTB₄ (Inhibitory ratio %)", "setting": "Lipoxygenase", "result": 76, "unit": "%"}, {"measurement": "Amount of LTB₄ produced", "setting": "Lipoxygenase", "result": 30, "unit": "ng/ml/plasma"}, {"measurement": "Amount of 5-HETE produced", "setting": "Lipoxygenase", "result": 45, "unit": "ng/ml/plasma"}]}]}
